Results from the supplement of paper PMC4121296.

Assays:
Conditions in all cases: exposure: 5-72 hpf
[1] = tested on: Danio rerio embryo (fli1:egfp); experiment: arterial (dorsal aorta) circulation score at 72 hpf (normalized DA-Max (arbitrary units)); higher = more circulation
Procedure: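 fli1:egfp zebrafish embryos exposed 5-72 hpf to chemical (0.05-50 µM, 0.1% DMSO); arterial circulation at 72 hpf quantified from stream acquisitions of the dorsal aorta by FFT-based analysis (DA-Max, normalized dorsal aorta signal); only concentrations passing survival/body-length criteria analyzed.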

[2] = tested on: Danio rerio embryo (fli1:egfp); experiment: heart rate at 72 hpf (beats per minute); higher = faster heart rate
Procedure: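 fli1:egfp zebrafish embryos exposed 5-72 hpf to chemical (0.05-50 µM, 0.1% DMSO) in 384-well plates; heart rate at 72 hpf quantified from stream acquisitions by semi-automated MetaXpress journal (peak counting); only embryos in concentrations passing survival/body-length criteria analyzed.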

[3] = tested on: Danio rerio embryo (fli1:egfp); experiment: intersegmental vessel area normalized to body length at 72 hpf (ISV area / body length (normalized units)); higher = more vessel area
Procedure: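 fli1:egfp zebrafish embryos exposed 5-72 hpf to chemical (0.05-50 µM, 0.1% DMSO); intersegmental vessel (ISV) eGFP area quantified by MetaXpress journal at 72 hpf and normalized to body length.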

[4] = tested on: Danio rerio embryo (fli1:egfp); experiment: pericardial area at 72 hpf (image area units (not stated)); higher = larger pericardial area (edema)
Procedure: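 fli1:egfp zebrafish embryos exposed 5-72 hpf to chemical (0.05-50 µM, 0.1% DMSO); pericardial area at 72 hpf measured by semi-automated MetaXpress journal (increase indicates edema).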

[5] = tested on: Danio rerio embryo (fli1:egfp); experiment: body length at 72 hpf (µm); higher = longer body (less growth inhibition)
Procedure: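 Transgenic fli1:egfp zebrafish embryos (one per well, 384-well plate) exposed statically from 5 to 72 hpf at 28 °C to chemical (0.05-50 µM, 0.1% DMSO); at 72 hpf anesthetized and imaged on ImageXpress; body length of live, hatched, correctly oriented embryos measured by automated MetaXpress journal. Dead/unhatched/misoriented embryos have no value.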

C#CCOC(=O)[C@@H](C)Oc1ccc(Oc2ncc(Cl)cc2F)cc1 [Clodinafop-propargyl]
Conditions	arterial, [1]	body length at 72 hpf, [5]	heart rate at 72 hpf, [2]	intersegmental vessel area normalized, [3]	pericardial area at 72 hpf, [4]
0.0244 µM	11.8	3010	177	65.9	14100
0.05 µM	14.5	2990	168	84.8	13100
0.098 µM	12.3	2960	173	79	12900
0.195 µM	16.7	3060	183	76.8	13800
0.39 µM	14.4	3000	188	87.1	15200
0.78 µM	14.4	3000	185	73.6	15400
1.56 µM	12	3030	190	84	13500
3.125 µM	14.8	3030	191	82.7	12900
6.25 µM	12.5	2930	193	82.8	12900
12.5 µM	13.6	2940	196	89.6	13000

CCN(Cc1c(F)cccc1Cl)c1c([N+](=O)[O-])cc(C(F)(F)F)cc1[N+](=O)[O-] [Flumetralin]
Conditions	arterial, [1]	body length at 72 hpf, [5]	heart rate at 72 hpf, [2]	intersegmental vessel area normalized, [3]
0.05 µM	16.7	3020	183	67.3
0.098 µM	16.1	3080	174	74.9
0.195 µM	16.8	3050	177	79.1
0.39 µM	15	3010	176	72.5
0.78 µM	15.4	2980	181	76.2
1.56 µM	15.1	2850	182	84
3.125 µM	–	2770	–	–
6.25 µM	–	2670	–	–
12.5 µM	–	2670	–	–
25 µM	–	2670	–	–
50 µM	–	2620	–	–

CCOC(=O)COc1cc(-n2ncc(C(F)(F)F)c(C)c2=O)c(F)cc1Cl [Flufenpyr-ethyl]
Conditions	arterial, [1]	body length at 72 hpf, [5]	heart rate at 72 hpf, [2]	intersegmental vessel area normalized, [3]	pericardial area at 72 hpf, [4]
0.05 µM	8.79	2990	169	84.4	12800
0.098 µM	9.74	3000	178	70.8	13000
0.195 µM	9.58	3040	181	75.2	12300
0.39 µM	8.94	3080	180	77.1	13600
0.78 µM	9.32	3020	186	74.8	13300
1.56 µM	8.81	3020	182	75.8	13600
3.125 µM	6.7	2950	181	82.9	15300
6.25 µM	5.21	2810	166	83.5	25900

CCOc1cc(Oc2ccc(C(F)(F)F)cc2Cl)ccc1[N+](=O)[O-] [Oxyfluorfen]
Conditions	arterial, [1]	body length at 72 hpf, [5]	heart rate at 72 hpf, [2]	intersegmental vessel area normalized, [3]	pericardial area at 72 hpf, [4]
0.0244 µM	12.2	3050	183	86.8	14300
0.05 µM	15	3020	178	86.7	14500
0.098 µM	13.5	2990	180	88.8	14900
0.195 µM	15.8	2990	187	79	14500
0.39 µM	14.3	2990	185	95.7	15500
0.78 µM	13.4	3000	192	90.7	13400
1.56 µM	14.4	2850	190	89.4	13400
3.125 µM	12	2980	193	87.2	16200
6.25 µM	10.5	2960	194	100	15900
12.5 µM	7.87	2840	192	90.5	15300
25 µM	–	2660	–	–	–

CC(C)Oc1cc(-n2nc(C(C)(C)C)oc2=O)c(Cl)cc1Cl [Oxadiazon]
Conditions	arterial, [1]	body length at 72 hpf, [5]	heart rate at 72 hpf, [2]	intersegmental vessel area normalized, [3]	pericardial area at 72 hpf, [4]
0.05 µM	14.6	3090	179	85.1	14800
0.098 µM	14	3060	184	88.1	13700
0.195 µM	13.8	3090	190	90.3	15400
0.39 µM	14.5	3060	186	82.3	15400
0.78 µM	13.1	3040	182	82.4	16500
1.56 µM	15.4	2950	183	83.4	14900
3.125 µM	13.2	3060	188	85.6	15800
6.25 µM	14.1	3120	190	90.4	16000
12.5 µM	11.5	3000	181	94.5	17300
25 µM	9.56	2960	155	90.2	16800
